pEC50: −log10 of the molar value. Read-outs that look alike come from different tables or passages of the source.
Tests used:
Format in all cases: cell-based
C8166 cells = test: Cytotoxicity test on C8166 host cell (MTT colorimetry); conditions: 3 days
Experimental: (§1) Cytotoxicity Test of the Compounds 5-12 Obtained in the Above Examples on C8166 Host Cell 100 μL of 4×10^5/mL C8166 cell suspension was mixed with different candidate compound solutions. Set three repeated wells. Meanwhile, set compound-free control wells. Culture was conducted at 37° C. and 5% CO2 for three days. Cell toxicity was tested using MTT colorimetry. OD value was tested using ELX800 ELISA instrument, with the measurement wavelength of 595 nm and the reference wavelength of 630 nm. […] Calculation method and formula: dose-response curve was plotted according to the experimental results; according to Reed & Muench method, 50% effective concentration (EC50) to inhibit viruses, 50% Cytotoxic Concentration (CC50) and anti-HIV-1 activity in the Therapeutic Index (TI) were calculated according to the formula: TI=CC50/EC50.

HIV-1IIIB = test: Inhibition test on HIV-1IIIB induced cytopathic effect (syncytium formation) of C8166; conditions: for EC50 / pEC50: Human immunodeficiency virus 1, C8166, 72 h, HIV-1IIIB in C8166 cells, 3 days; for EC50: read-out: Syncytia inhibition (EC50) 2; for Therapeutic index (TI): TI=CC50/EC50; for anti-HIV-1 activity (in words): comment on Table 1, relative to Compound 5; for pEC50: read-out: Syncytia inhibition (EC50) 1
Experimental: Inhibition Test of the Compounds 5-12 Obtained in the Above Examples on HIV-1IIIB Induced Cytopathic Effect (CPE) of C8166 8×10^5/mL C8166 cell suspension was inoculated in 50 μL/well into a 96-well cell culture plate containing compound diluted in multiple proportions in 100 μL/well, to which was then added 50 μL of HIV-1IIIB diluted supernatant (M.O.I. 0.0016). Set three repeated wells, at the same time, set normal cell control wells that are free of the compound. Culture was conducted at 37° C. and 5% CO2 for three days. Syncytium formation was counted using an inverted microscope (100×). EC50 (50% Effective Concentration), i.e., the concentration of the compound that inhibits 50% syncytium formation, was calculated. Calculation method and formula: dose-response curve was plotted according to the experimental results; according to Reed & Muench method, 50% effective concentration (EC50) to inhibit viruses, 50% Cytotoxic Concentration (CC50) and anti-HIV-1 activity in the Therapeutic Index (TI) were calculated according to the formula: TI=CC50/EC50.

[1] = Cytotoxicity test on C8166 host cell (MTT colorimetry); conditions: human, C8166 cells (T lymphocyte cell line)
Experimental: as §1

Row | Compound | toxicity (CC50) 2 (C8166 cells) | EC50 (HIV-1IIIB) | Therapeutic index (TI) (HIV-1IIIB) | anti-HIV-1 activity (in words) (HIV-1IIIB) | CC50 at 3 days ([1]; read-out: toxicity (CC50) 1) | CC50 at 3 days ([1]; read-out: toxicity (CC50) 2) | pEC50 (HIV-1IIIB)
1 | COC(=O)c1cc2c(c(OC)c1-c1ccc(N(C)C)cc1)OCO2 [Compound 5] | ≥ 411.41 µg/mL | 0.14 µg/mL | >2840.91 | very significant anti-HIV-1 activity | – | – | –
2 | COC(=O)c1cc2c(c(OC)c1-c1ccc(N3CCOCC3)cc1)OCO2 [Compound 7] | – | 0.23 µg/mL | 1376.35 | – | 881 µM | 317 µg/mL | 6.19
3 | COc1c2c(cc(C(=O)O)c1-c1ccc(N(C)C)cc1)OCO2 [Compound 9] | – | ≥ 7.88 µg/mL | <25.97 | activity declined notably | 649 µM | 205 µg/mL | < 4.60
4 | COC(=O)c1cc2c(c(OC)c1-c1ccc(N(c3ccccc3)c3ccccc3)cc1)OCO2 [Compound 8] | – | 0.28 µg/mL | 862.52 | – | 802 µM | 245 µg/mL | 6.03
5 | COC(=O)c1cc2c(c(OC)c1-c1ccc(N(C)C)c(C)c1)OCO2 [Compound 6] | – | 0.14 µg/mL | >2551.02 | – | > 1250 µM | ≥ 358 µg/mL | 6.31
6 | Br.COC(=O)c1cc2c(c(OC)c1-c1ccc(N(C)C)cc1)OCO2 [Compound 11] | 29.43 µg/mL | 0.26 µg/mL | 114.19 | – | – | – | –
7 | COC(=O)c1cc2c(c(OC)c1-c1ccc([N+](C)(C)Cc3ccccc3)cc1)OCO2.[Br-] [Compound 12] | – | 3.74 µg/mL | 7.10 | – | 53.3 µM | 26.6 µg/mL | 5.12
8 | COC(=O)c1cc2c(c(OC)c1-c1ccc(N(C)C)cc1)OCO2.Cl [Compound 10] | ≥ 456.38 µg/mL | 0.15 µg/mL | >2976.19 | activity was increased | – | – | 6.38
